Results as given in patent US20220323476A1, “ANTIVIRAL PRODRUGS AND FORMULATIONS THEREOF” (priority 2019, published 2022).

Legend:
[1] = Single dose rhesus macaque PK, subcutaneous aqueous suspension, plasma EFdA by LC-MS/MS
Experimental: The aqueous suspension formulations were derived from 0.25;% CMC-Na and 0.1;%/0.5% TWEEN-80 with equivalent concentration of 116 mg/mL and 319 mg/mL of EFdA for prodrug 5 and EFdA respectively.

[2] = Single dose rat PK, subcutaneous aqueous suspension, plasma EFdA by LC-MS/MS; settings: SC; for Cmax compared with EFdA itself / time with plasma levels of EFdA above LLOQ: single dose, 10 mg/kg equivalent of EFdA, 4 mg/mL, 0.5% CMC-Na/0.5% TWEEN-80
Experimental: Animals (Male SD rats ˜200-250 g and Male rhesus macaques ˜2-3 kg) were obtained from an approved vendor (SLAC Laboratory Animal Co. Ltd., Shanghai, China and/or Topgene Biotechnology, Wuhan city, Hubei Province, China).
Animals were fasted at least 12 hours prior to the administration. All animals had access to Certified Rodent and non-Rodent Diet (Catalog #M01-F, SLAC Laboratory Animal Cl. Ltd., Shanghai, China) ad libitum 4 hours post dosing.
The formulations were prepared on the day of dosing. Animals were dosed within four hours after the formulation is prepared. Two 20 μL aliquots of each formulation were removed from each of the formulation solutions, transferred into 1.5 mL of polypropylene microcentrifuge tubes and run dose validation by LC/UV or LC-MS/MS.
For SC dosing, the dose formulation was administered via subcutaneous injection following facility SOPs.
Approximately 200 μL blood was collected from saphenous vein at each time point for rats and 0.5 mL for rhesus macaques. All blood samples were transferred into microcentrifuge tubes containing 4 μL of K2EDTA (0.5M) as anti-coagulant and placed on wet ice until processed for plasma.
Blood: Blood samples were processed for plasma by centrifugation at approximately 4° C., 3000 g 15 min within half an hour of collection. Plasma samples was stored in polypropylene tubes, quick frozen over dry ice and kept at −70±10° C. until LC/MS/MS analysis.
If the carryover couldn't meet the criteria, then the percent of carryover should be estimated following in-house bioanalytical SOP.
Plasma concentration versus time data was analyzed by non-compartmental approaches using the Phoenix WINNONLIN 6.3 software program. Cmax, Tmax, T1/2, AUC(0-t), AUC(0-inf), MRT(0-t), MRT(0-inf), % F and graphs of plasma concentration versus time profile were reported.
Several prodrugs including EFdA (1) as a control were subjected to a single dose rat PK studies via subcutaneous route of administration. All were injected with equivalent doses of 10 mg/kg and concentration of 4 mg/mL of EFdA as an aqueous suspension formulation derived from 0.5% CMC-Na and 0.5% TWEEN-80.

[3] = Aqueous solubility (pH 7.4); settings: aqueous medium at pH 7.4, pH 7.4, aqueous buffer
[4] = male, rhesus monkey, plasma, sc, 50 mg/kg

| SMILES | time with plasma levels of EFdA above LLOQ ([1]; rhesus macaque, SC, single dose, 50 mg/kg equivalent of EFdA, 116 mg/mL) | Cmax compared with EFdA itself [2] | time with plasma levels of EFdA above LLOQ [2] | solubility [3] | half life and mean residence life compared with EFdA ([2]; 100 mg/kg equivalent dose, 120 mg/mL (prodrug 3) vs 319 mg/mL (EFdA)) | AUC(0-inf) [1, 4] | half-life [1, 4] |
| --- | --- | --- | --- | --- | --- | --- | --- |
| C#C[C@]1(COC(=O)Cc2ccccc2)O[C@@H](n2cnc3c(N)nc(F)nc32)C[C@@H]1OC(=O)Cc1ccccc1 [Compound 5, (2R,3S,5R)-5-(6-amino-2-fluoro-9H-purin-9-yl)-2-ethynyl-2-((2-phenylacetoxy)methyl) tetrahydrofuran-3-yl 2-phenylacetate] | more than a month | much lower than EFdA itself | more than a week | < 2 µg/mL | – | – | – |
| C#C[C@]1(COC(=O)C(CC)CC)O[C@@H](n2cnc3c(N)nc(F)nc32)C[C@@H]1OC(=O)C(CC)CC [Compound 3, (2R,3S,5R)-5-(6-amino-2-fluoro-9H-purin-9-yl)-2-(((2-ethylbutanoyl)oxy)methyl)-2-ethynyltetrahydrofuran-3-yl 2-ethylbutanoate] | – | much lower than EFdA itself | more than a week | < 2 µg/mL | Enhanced | – | – |
| C#C[C@]1(CO)O[C@@H](n2cnc3c(N)nc(F)nc32)C[C@@H]1O [Compound 1, (2R,3S,5R)-5-(6-amino-2-fluoro-9H-purin-9-yl)-2-ethynyl-2-(hydroxymethyl) tetrahydrofuran-3-ol] | – | – | – | – | – | 135 ± 22.7 µM·h | 69 ± 14 h |
| C#C[C@]1(COC(=O)CN)O[C@@H](n2cnc3c(N)nc(F)nc32)C[C@@H]1OC(=O)CN [Compound 14] | – | – | – | > 106000 µg/mL | – | – | – |
| C#C[C@]1(COC(=O)C(C)C)O[C@@H](n2cnc3c(N)nc(F)nc32)C[C@@H]1OC(=O)C(C)C [Compound 2, (2R,3S,5R)-5-(6-amino-2-fluoro-9H-purin-9-yl)-2-ethynyl-2-((isobutyryloxy)methyl) tetrahydrofuran-3-yl isobutyrate] | – | much lower than EFdA itself | more than a week | – | – | – | – |
